Measurements reported in patent US8952024B2, “Herbicidal pyrimidone derivatives” (E I du Pont de Nemours and Company, priority 2009, dated 2015).

Assays:
Type in all cases: in vivo
[1] = system: cocklebur (Xanthium strumarium); test: Test B pre-/postemergence plant response
Text: (§1) Seeds of plant species selected from blackgrass (Alopecurus myosuroides), downy bromegrass (Bromus tectorum), green foxtail (Setaria viridis), Italian ryegrass (Lolium multiflorum), wheat (Triticum aestivum), wild oat (Avena fatua), deadnettle (henbit deadnettle, Lamium amplexicaule), galium (catchweed bedstraw, Galium aparine), bermudagrass (Cynodon dactylon), Surinam grass (Brachiaria decumbens), cocklebur (Xanthium strumarium), corn (Zea mays), large crabgrass (Digitaria sanguinalis), woolly cupgrass (Eriochloa villosa), giant foxtail (Setaria faberii), goosegrass (Eleusine indica), johnsongrass (Sorghum halepense), kochia (Kochia scoparia), lambsquarters (Chenopodium album), morningglory (Ipomoea coccinea), nightshade (eastern black nightshade, Solanum ptycanthum), yellow nutsedge (Cyperus esculentus), pigweed (Amaranthus retroflexus), ragweed (common ragweed, Ambrosia elatior), Russian thistle (Salsola kali), soybean (Glycine max), sunflower (common oilseed sunflower, Helianthus annuus) and velvetleaf (Abutilon theophrasti) were planted into a blend of loam soil and sand and treated preemergence with test compounds formulated in a non-phytotoxic solvent mixture which included a surfactant.
(§2) At the same time, plants selected from these crop and weed species and also winter barley (Hordeum vulgare), canarygrass (Phalaris minor), chickweed (Stellaria media) and windgrass (Apera spica-venti) were planted in pots containing Redi-Earth® planting medium (Scotts Company, 14111 Scottslawn Road, Marysville, Ohio 43041) comprising spaghnum peat moss, vermiculite, wetting agent and starter nutrients and treated with postemergence applications of some of the test chemicals formulated in the same manner. Plants ranged in height from 2 to 18 cm (1- to 4-leaf stage) for postemergence treatments.
(§3) Treated plants and controls were maintained in a greenhouse for 13 to 15 days, after which time all treated plants were visually evaluated and compared to controls. Plant response ratings, summarized in Table B, are based on a scale of 0 to 100 where 0 is no effect and 100 is complete control. A dash (-) response means no test result.

[2] = system: goosegrass (Eleusine indica); test: Test B pre-/postemergence plant response
Text: as §1, §2, §3

[3] = system: johnsongrass (Sorghum halepense); test: Test B pre-/postemergence plant response
Text: as §1, §2, §3

kochia (Kochia scoparia) = test: Test B pre-/postemergence plant response; conditions: Postemergence; for Plant response rating, Kochia: scale 0 (no effect) to 100 (complete control); for Kochia plant response rating: 250 g ai/ha, scale 0 to 100
Text: as §1, §2, §3

[4] = system: pigweed (Amaranthus retroflexus); test: Test B pre-/postemergence plant response
Text: as §1, §2, §3

[5] = system: ragweed (common ragweed, Ambrosia elatior); test: Test B pre-/postemergence plant response
Text: as §1, §2, §3

soybean (Glycine max) = test: Test B pre-/postemergence plant response
Text: as §1, §2, §3

[6] = system: velvetleaf (Abutilon theophrasti); test: Test B pre-/postemergence plant response
Text: as §1, §2, §3

[7] = system: wheat (Triticum aestivum); test: Test B pre-/postemergence plant response
Text: as §1, §2, §3

wild oat (Avena fatua) = test: Test B pre-/postemergence plant response
Text: as §1, §2, §3

[8] = system: canarygrass (Phalaris minor); test: Test B postemergence plant response; conditions: Postemergence; for Canarygrass plant response rating: 250 g ai/ha, scale 0 to 100
In short: (§4)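 Plants at the 1- to 4-leaf stage (2 to 18 cm tall), grown in pots of peat moss/vermiculite medium with wetting agent and starter nutrients, received postemergence applications of test chemicals. After 13 to 15 days in a greenhouse, injury was rated visually against untreated controls on a 0 (no effect) to 100 (complete control) scale.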

[9] = system: chickweed (Stellaria media); test: Test B postemergence plant response; conditions: Postemergence; for Chickweed plant response rating: 250 g ai/ha, scale 0 to 100
In short: as §4

[10] = system: windgrass (Apera spica-venti); test: Test B postemergence plant response; conditions: Postemergence, scale 0 (no effect) to 100 (complete control)
In short: as §4

[11] = 250 g ai/ha, Preemergence, 0 to 100 scale
[12] = Postemergence, 62 g ai/ha, scale 0 (no effect) to 100 (complete control), 13 to 15 days
[13] = Postemergence, 125 g ai/ha, visual rating after 13 to 15 days, scale 0 (no effect) to 100 (complete control)
[14] = Postemergence, 250 g ai/ha, scale 0 to 100
[15] = Preemergence, 31 g ai/ha, scale 0 to 100 (0 no effect, 100 complete control)
[16] = Preemergence, 62 g ai/ha, scale 0 to 100 (0 no effect, 100 complete control)
[17] = Preemergence, 125 g ai/ha, 0 to 100 scale
[18] = 125 g ai/ha, visual rating after 13 to 15 days
[19] = 31 g ai/ha, scale 0 to 100 (0 no effect, 100 complete control)
[20] = 62 g ai/ha, scale 0 (no effect) to 100 (complete control), 13 to 15 days
[21] = 125 g ai/ha, visual rating after 13 to 15 days, scale 0 (no effect) to 100 (complete control)

## Cc1cc(C)cc(-n2c(-c3ccccc3)ncc(C(=O)C3=C(O)CCCC3=O)c2=O)c1 [Compound 33]
[1]; [11]
  Plant response rating, Cocklebur: 90
[1]; Postemergence, 31 g ai/ha, scale 0 to 100 (0 no effect, 100 complete control)
  Plant response rating, Cocklebur: 85
[1]; [12]
  Plant response rating, Cocklebur: 90
[1]; [13]
  Plant response rating, Cocklebur: 95
[1]; [14]
  Cocklebur plant response rating: 95
[1]; [15]
  Plant response rating, Cocklebur: 25
[1]; [16]
  Plant response rating, Cocklebur: 80
[1]; [17]
  Cocklebur plant response rating: 85
[2]; [11]
  Plant response rating, Goosegrass: 98
[2]; [12]
  Plant response rating, Goosegrass: 75
[2]; [13]
  Plant response rating, Goosegrass: 85
[2]; [14]
  Goosegrass plant response rating: 85
[2]; [15]
  Plant response rating, Goosegrass: 80
[2]; [17]
  Goosegrass plant response rating: 90
[3]; [11]
  Plant response rating, Johnsongrass: 20
[3]; [12]
  Plant response rating, Johnsongrass: 35
[3]; [13]
  Plant response rating, Johnsongrass: 35
[3]; [14]
  Johnsongrass plant response rating: 40
[3]; [15]
  Plant response rating, Johnsongrass: 0
[3]; [16]
  Plant response rating, Johnsongrass: 0
[3]; [17]
  Johnsongrass plant response rating: 0
Kochia (Kochia scoparia); 62 g ai/ha, 13 to 15 days
  Plant response rating, Kochia: 80
Kochia (Kochia scoparia); [18]
  Plant response rating, Kochia: 95
Kochia (Kochia scoparia)
  Kochia plant response rating: 98
[4]; [11]
  Plant response rating, Pigweed: 100
[4]; [12]
  Plant response rating, Pigweed: 95
[4]; [13]
  Plant response rating, Pigweed: 98
[4]; [15]
  Plant response rating, Pigweed: 100
[4]; [16]
  Plant response rating, Pigweed: 100
[4]; [17]
  Pigweed plant response rating: 100
[5]; [11]
  Plant response rating, Ragweed: 100
[5]; [12]
  Plant response rating, Ragweed: 95
[5]; [13]
  Plant response rating, Ragweed: 98
[5]; [15]
  Plant response rating, Ragweed: 80
[5]; [16]
  Plant response rating, Ragweed: 85
[5]; [17]
  Ragweed plant response rating: 100
Soybean (Glycine max); [11]
  Plant response rating, Soybean: 75
Soybean (Glycine max); [12]
  Plant response rating, Soybean: 98
Soybean (Glycine max); [13]
  Plant response rating, Soybean: 98
Soybean (Glycine max); [15]
  Plant response rating, Soybean: 60
Soybean (Glycine max); [16]
  Plant response rating, Soybean: 60
Soybean (Glycine max); [17]
  Soybean plant response rating: 65
[6]; [11]
  Plant response rating, Velvetleaf: 100
[6]; [12]
  Plant response rating, Velvetleaf: 90
[6]; [13]
  Plant response rating, Velvetleaf: 98
[6]; [15]
  Plant response rating, Velvetleaf: 80
[6]; [16]
  Plant response rating, Velvetleaf: 90
[6]; [17]
  Velvetleaf plant response rating: 100
[7]; [11]
  Plant response rating, Wheat: 5
[7]; [12]
  Plant response rating, Wheat: 0
[7]; [13]
  Plant response rating, Wheat: 5
[7]; [15]
  Plant response rating, Wheat: 0
[7]; [16]
  Plant response rating, Wheat: 0
[7]; [17]
  Wheat plant response rating: 0
Wild oat (Avena fatua); [11]
  Plant response rating, Oat, Wild: 50
Wild oat (Avena fatua); [12]
  Plant response rating, Oat, Wild: 15
Wild oat (Avena fatua); [13]
  Plant response rating, Oat, Wild: 40
Wild oat (Avena fatua); [15]
  Plant response rating, Oat, Wild: 0
Wild oat (Avena fatua); [16]
  Plant response rating, Oat, Wild: 0
Wild oat (Avena fatua); [17]
  Oat, Wild plant response rating: 30
[8]; [19]
  Plant response rating, Canarygrass: 0
[8]; [20]
  Plant response rating, Canarygrass: 0
[8]; [21]
  Plant response rating, Canarygrass: 5
[8]
  Canarygrass plant response rating: 5
[9]; [19]
  Plant response rating, Chickweed: 80
[9]; [20]
  Plant response rating, Chickweed: 98
[9]; [21]
  Plant response rating, Chickweed: 100
[9]
  Chickweed plant response rating: 100
[10]; 62 g ai/ha, 13 to 15 days
  Plant response rating, Windgrass: 25
[10]; [18]
  Plant response rating, Windgrass: 30

## Cc1ccccc1-n1c(-c2cccc(Cl)c2)ncc(C(=O)C2=C(O)CCCC2=O)c1=O [Compound 36]
[1]; [11]
  Plant response rating, Cocklebur: 80
[2]; [11]
  Plant response rating, Goosegrass: 100
[2]; [12]
  Plant response rating, Goosegrass: 85
[2]; [13]
  Plant response rating, Goosegrass: 90
[2]; [14]
  Goosegrass plant response rating: 95
[2]; [15]
  Plant response rating, Goosegrass: 0
[2]; [17]
  Goosegrass plant response rating: 95
[3]; [11]
  Plant response rating, Johnsongrass: 85
[3]; [12]
  Plant response rating, Johnsongrass: 75
[3]; [13]
  Plant response rating, Johnsongrass: 85
[3]; [14]
  Johnsongrass plant response rating: 100
[3]; [15]
  Plant response rating, Johnsongrass: 0
[3]; [16]
  Plant response rating, Johnsongrass: 65
[3]; [17]
  Johnsongrass plant response rating: 80
Kochia (Kochia scoparia); 62 g ai/ha, 13 to 15 days
  Plant response rating, Kochia: 0
Kochia (Kochia scoparia); [18]
  Plant response rating, Kochia: 60
Kochia (Kochia scoparia)
  Kochia plant response rating: 65
[4]; [11]
  Plant response rating, Pigweed: 100
[4]; [12]
  Plant response rating, Pigweed: 85
[4]; [13]
  Plant response rating, Pigweed: 90
[4]; [15]
  Plant response rating, Pigweed: 100
[4]; [17]
  Pigweed plant response rating: 100
[5]; [11]
  Plant response rating, Ragweed: 90
[5]; [12]
  Plant response rating, Ragweed: 90
[5]; [13]
  Plant response rating, Ragweed: 95
[5]; [15]
  Plant response rating, Ragweed: 35
[5]; [17]
  Ragweed plant response rating: 85
Soybean (Glycine max); [11]
  Plant response rating, Soybean: 40
Soybean (Glycine max); [12]
  Plant response rating, Soybean: 98
Soybean (Glycine max); [13]
  Plant response rating, Soybean: 100
Soybean (Glycine max); [15]
  Plant response rating, Soybean: 0
Soybean (Glycine max); [17]
  Soybean plant response rating: 0
[6]; [11]
  Plant response rating, Velvetleaf: 100
[6]; [12]
  Plant response rating, Velvetleaf: 100
[6]; [13]
  Plant response rating, Velvetleaf: 100
[6]; [15]
  Plant response rating, Velvetleaf: 65
[6]; [17]
  Velvetleaf plant response rating: 100
[7]; [11]
  Plant response rating, Wheat: 0
[7]; [12]
  Plant response rating, Wheat: 5
[7]; [13]
  Plant response rating, Wheat: 5
[7]; [15]
  Plant response rating, Wheat: 0
[7]; [17]
  Wheat plant response rating: 0
Wild oat (Avena fatua); [11]
  Plant response rating, Oat, Wild: 0
Wild oat (Avena fatua); [12]
  Plant response rating, Oat, Wild: 75
Wild oat (Avena fatua); [13]
  Plant response rating, Oat, Wild: 75
Wild oat (Avena fatua); [15]
  Plant response rating, Oat, Wild: 0
Wild oat (Avena fatua); [17]
  Oat, Wild plant response rating: 0
[8]; [19]
  Plant response rating, Canarygrass: 40
[8]; [20]
  Plant response rating, Canarygrass: 45
[8]; [21]
  Plant response rating, Canarygrass: 50
[8]
  Canarygrass plant response rating: 50
[9]; [19]
  Plant response rating, Chickweed: 85
[9]; [20]
  Plant response rating, Chickweed: 98
[9]; [21]
  Plant response rating, Chickweed: 100
[9]
  Chickweed plant response rating: 100
[10]; 62 g ai/ha, 13 to 15 days
  Plant response rating, Windgrass: 70
[10]; [18]
  Plant response rating, Windgrass: 80
